Measured values from patent publication US5985603A, “P2x receptor DNA and protein sequence” (Glaxo Group Limited, priority 1994, dated 1999).

Assays:
[1] = system: non-transfected CHO cells; assay: electrophysiological recording in non-transfected CHO cells (control); assay type: cell-based, chinese hamster; settings: up to 30 μM; 45 of 45 cells
Excerpt: CHO cells were stably transfected by a method used for other ion channels (Claudio, Meth. Enzymol. 207 391-408 (1992)). Transfection was confirmed by a) electro-physiological recording and b) radioligand binding. […] [^3 H]αβmethyleneATP binding was more than 600 cpm per million transfected cells with less than 80 cpm nonspecific binding.

P2X-purinoceptor = settings: cited from earlier work
[2] = molecular target: T1, rat vas deferens P2X receptor (Rattus norvegicus, UniProt P47824); assay: ATP-evoked currents, rat vas deferens P2X receptor clone in oocytes; assay type: cell-based; settings: ATP (>1 μM), second application 10 mins after the first
T1 construct: cRNA in Xenopus oocytes; stably transfected CHO cells
T1 sequence (P47824 1-399): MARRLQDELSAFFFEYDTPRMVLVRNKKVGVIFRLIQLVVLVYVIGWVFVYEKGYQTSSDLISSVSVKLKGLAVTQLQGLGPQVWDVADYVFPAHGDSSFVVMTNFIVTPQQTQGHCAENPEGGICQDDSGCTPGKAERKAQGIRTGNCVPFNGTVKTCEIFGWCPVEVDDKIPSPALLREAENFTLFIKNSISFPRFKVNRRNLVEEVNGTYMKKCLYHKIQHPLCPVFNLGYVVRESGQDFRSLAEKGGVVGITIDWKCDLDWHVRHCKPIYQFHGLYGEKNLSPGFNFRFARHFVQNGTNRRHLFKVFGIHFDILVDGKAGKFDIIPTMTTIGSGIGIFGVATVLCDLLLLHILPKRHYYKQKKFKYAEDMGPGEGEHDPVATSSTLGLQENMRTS
Protocol: 50 nl (200 ng) of RNA was injected into defolliculated Xenopus oocytes. After incubation for 2-6 days at 18° C., the oocytes were assayed for ATP-evoked currents by a two-electrode voltage clamp ([…]™); one electrode is to hold the voltage constant (at -100 mV), and the other is to measure the currents. […] Microelectrodes (0.5-2 M.OMEGA.) were filled with 3M KCl.

[3] = molecular target: T2, rat vas/human bladder P2X cDNA clone (Homo sapiens, UniProt P51575); assay: functional properties of cloned P2X receptors (electrical recordings): bladder; assay type: cell-based
T2 construct: expressed in transfected cells; host or cells: HEK293 cells (oocytes are also named for the functional characterisation)
T2 sequence (P51575 1-399): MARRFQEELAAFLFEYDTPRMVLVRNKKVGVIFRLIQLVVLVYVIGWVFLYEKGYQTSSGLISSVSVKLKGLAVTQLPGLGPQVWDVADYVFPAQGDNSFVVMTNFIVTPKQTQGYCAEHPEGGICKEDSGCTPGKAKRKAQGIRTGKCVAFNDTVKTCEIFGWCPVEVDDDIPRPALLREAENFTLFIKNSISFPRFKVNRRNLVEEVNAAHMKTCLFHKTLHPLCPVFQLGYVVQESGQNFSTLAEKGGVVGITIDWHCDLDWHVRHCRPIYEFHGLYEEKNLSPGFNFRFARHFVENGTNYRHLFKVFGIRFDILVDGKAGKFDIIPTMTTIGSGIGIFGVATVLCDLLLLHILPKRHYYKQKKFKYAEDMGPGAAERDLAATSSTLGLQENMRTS
Protocol: DNA concentration used was 1 mg/2 ml medium placed into a 35 mm petri dish containing four 11 mm diameter coverslips on which HEK cells were placed at 10,000 cells per coverslip. […] Currents were recorded from HEK 293 cells using whole-cell recording methods and the AXOPATCH™ 200 amplifier (Axon Instruments); patch pipettes (5 M.OMEGA.) contained (mM) Cs or K aspartate 140, NaCl 5, EGTA 11, HEPES 5. […] All recordings performed at room temperature. Data acquisition and analysis were performed using pCLAMP™ and AXOGRAPH™ software (Axon Instruments). […] ATP was applied by U-tube typically for 1 s; data was sampled at 5 kHz in 2 s segments beginning 300 ms prior to onset of agonist (ATP) application and filtered at 1 kHz.

hP2X = molecular target: T3, hP2X (Homo sapiens, UniProt P51575); assay: inward currents evoked by purinoceptor agonists in Xenopus oocytes expressing hP2X; assay type: cell-based
T3 construct: expressed in transfected cells; host or cells: Xenopus oocytes injected with in vitro transcribed RNA
T3 sequence (P51575 1-399): T2 sequence (P51575 1-399)
Protocol: Human urinary bladder P2X cDNA, subcloned into the pBKCMV expression vector, was linearized with Notl, and transcribed in vitro with T3 polymerase in the presence of cap analogue m7G(5')ppp(5')G. Defolliculated Xenopus oocytes (Bertrand et al, Electrophysiology of neuronal nicotinic acetylcholine receptors expressed in Xenopus oocytes following nuclear injection of genes or cDNAs Meth Neurosci 4: 174-193 (1991)) were injected with 50 ng of human P2X in vitro transcribed RNA, and incubated at 18° C. for 2-6 days in the ND96 solution (mM): NaCl96, KCl2, MgCl2 1, CaCl2 2, sodium pyruvate 5, HEPES 5, ph 7.6-7.5, penicillin (10 U/ml), and streptomycin (10 μg/ml).
Oocytes were placed in a 1 ml chamber and superfused at 2-3 ml/min with ND96 solution with 0.1 mM BaCl2 replacing the 2 mM CaCl2 to prevent activation of endogenous calcium-activated chloride currents (Barish, A transient calcium-dependent chloride current in the immature Xenopus oocytes J Physiol 342: 309-325 (1983)). Currents were measured using a two-electrode voltage-clamp amplifier (Geneclamp Axon Instruments)at a holding potential of -60 mV. Microelectrodes were filled with 3 M KCl (0.5-2 M.OMEGA.). Data were collected using PClamp software (Axon Instruments). […] Antagonists were applied both in the superfusate and together with ATP in the U-tube solution.
Concentration response curves for purinoceptor agonists were fitted with a Hill slope of 1. […] Data are presented throughout as mean ± SEM for a given number of oocytes.

[4] = ATP higher concentrations (1 μM)

## Nc1ncnc2c1ncn2[C@@H]1O[C@H](COP(=O)([O-])OP(=O)([O-])OP(=O)([O-])[O-])[C@@H](O)[C@H]1O.[Mg+2].[Mg+2] [ATP, adenosine 5'-triphosphate magnesium salt]
[1]
  effect in non-transfected cells: no effect in 45 of 45 non-transfected cells
P2X-purinoceptor
  agonist potency order in whole tissue studies: α,β,-meATP >>2MeSATP≥ATP
[2]
  inward current evoked by second application, of the initial peak amplitude: ~ 50%
[3]
  EC50: 700 nM
hP2X; 100 μM ATP for 5 s every 10 min
  response to repeated application: reproducible inward currents
hP2X; ATP
  reversal of current on washout: returned to control values on washout
hP2X; ATP 30-300 nM
  time over which responses developed: 3 to 5 s
hP2X; [4]
  response after 5 s of continued application, of the peak amplitude: 40-60
  time to peak of response: 1 to 1.5 s
hP2X; ATP up to 1 mM for 5 s every 10 mins
  variation in peak amplitude on repeated application: < 10%
hP2X; ATP, 2MeSATP and 2-chloro-ATP
  comparison of concentration-effect curves: superimposable
hP2X; oocytes expressing hP2X
  agonist profile (rank order): 2MeSATP≥ATP>α,β,-meATP
hP2X; read-out: response to 10 μM ATP, % of peak response to ATP
  activation at 10 µM: ~90%
